Reference: patent EP4725957A1, “GROUP OF CYCLIC ALKALINE LIPOPEPTIDE COMPOUNDS, AND PREPARATION METHOD THEREFOR AND USE THEREOF” (Institute of Medicinal Biotechnology, Chinese Academy of …, priority 2023, dated 2024)
In brackets after ≈: the same amount, converted by molar mass. Bridge positions count the residues as written; N and C are the ends. Square brackets hold non-standard residues; d marks the D form. Peptide text beside a SMILES is read from it. * marks the point of attachment. Heptanoyl(6-Me) = CC(C)CCCCC(=O)*; X1 = CC[C@H](C)CCCCC(=O)*; dDab = NCC[C@@H](N)C(=O)O; Heptanoyl = CCCCCCC(=O)*; Octanoyl = CCCCCCCC(=O)*; Orn = NCCC[C@H](N)C(=O)O; dDap = NC[C@@H](N)C(=O)O; Dab = NCC[C@H](N)C(=O)O; Dap = NC[C@H](N)C(=O)O

Legend:
Format in all cases: cell-based
[1] = test system: Escherichia coli ATCC BAA-2340 (KPC); settings: ATCC BAA-2340
Outline: (§1)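 In this CLSI-based assay, serially halved compound (final 64–0.03 mg/L) was exposed to (2-4) × 10^5 CFU/mL bacteria in MH broth at 35-37°C for 16-20 h. The readout was the MIC.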

[2] = test system: Acinetobacter baumannii ABA19-1; settings: ABA19-1
Outline: as §1

[3] = test system: Pseudomonas aeruginosa PAE19-3; settings: PAE19-3
Outline: as §1

[4] = test system: Klebsiella pneumoniae ATCC BAA-1705 (KPC); settings: ATCC BAA-1705
Outline: as §1

[5] = test system: Pseudomonas aeruginosa ATCC 27853; settings: ATCC 27853
Outline: as §1

[6] = test system: Escherichia coli ATCC BAA-2523; settings: ATCC BAA-2523
Outline: as §1

[7] = test system: Klebsiella pneumoniae KPN+19-15; settings: KPN+19-15
Outline: as §1

[8] = test system: Acinetobacter baumannii NCTC 13304 (OXA-27); settings: NCTC 13304
Outline: as §1

[9] = Nephrotoxicity assay: in vitro cytotoxicity of HK-2 cells by CCK-8 assay; settings: human, HK-2 cells (human renal), 72 h incubation with drug-containing medium
Outline: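 Compounds in sterile water, diluted to final 500, 250, 200, 100, 50, 25 and 12.5 µg/mL, were applied for 72 h to human HK-2 kidney cells. Absorbance at 450 nm after 3 h CCK-8 gave viability against untreated wells, and IC50 came from logarithmic regression; three replicates.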

With CC(C)CCCCC(=O)N[C@@H](CCN)C(=O)N[C@H](C(=O)N[C@@H](CCCN)C(=O)N[C@H]1CCNC(=O)[C@H]([C@@H](C)O)NC(=O)[C@H](CCN)NC(=O)[C@H](CCN)NC(=O)[C@H](CC(C)C)NC(=O)[C@@H](Cc2ccccc2)NC(=O)[C@H](CCN)NC1=O)[C@@H](C)O [Compound 47, 6-methylheptanoyl-Dab-Thr-Orn-ring(4-10)[Dab-Dab-D-Phe-Leu-Dab-Dab-Thr]] ({Heptanoyl(6-Me)}-[Dab]T[Orn][Dab][Dab][dF]L[Dab][Dab]T; lactam 4-C) the MIC [1] was 0.03 µg/mL (≈ 0.0249 µM), the MIC [2] was 0.125 µg/mL (≈ 0.104 µM) and the MIC [3] was 0.25 µg/mL (≈ 0.208 µM). The MIC [4] was no more than 0.03 µg/mL, the MIC [5] was no more than 0.03 µg/mL and the MIC [6] was 0.03 µg/mL (≈ 0.0249 µM). It also gave an MIC [7] of no more than 0.03 µg/mL, an MIC [8] of 0.06 µg/mL (≈ 0.0499 µM) and an IC50 at 72 h [9] of 358 ± 11.2 µg/mL (≈ 297 µM).

CCCCCCC(=O)N[C@@H](CCN)C(=O)N[C@H](C(=O)N[C@@H](CCCN)C(=O)N[C@H]1CCNC(=O)[C@H]([C@@H](C)O)NC(=O)[C@H](CCN)NC(=O)[C@H](CCN)NC(=O)[C@H]([C@@H](C)O)NC(=O)[C@@H](Cc2ccccc2)NC(=O)[C@H](CCN)NC1=O)[C@@H](C)O [Compound 29, Heptanoyl-Dab-Thr-Orn-ring(4-10)[Dab-Dab-D-Phe-Thr-Dab-Dab-Thr]] (Heptanoyl-[Dab]T[Orn][Dab][Dab][dF]T[Dab][Dab]T; lactam 4-C) showed an MIC [1] of 0.03 µg/mL (≈ 0.0255 µM), an MIC [2] of 0.125 µg/mL (≈ 0.106 µM) and an MIC [3] of 0.5 µg/mL (≈ 0.425 µM). The MIC [4] was 0.03 µg/mL (≈ 0.0255 µM), the MIC [5] was 0.03 µg/mL (≈ 0.0255 µM) and the MIC [6] was 0.03 µg/mL (≈ 0.0255 µM). For the same compound, the MIC [7] was 0.03 µg/mL (≈ 0.0255 µM), the MIC [8] was 0.06 µg/mL (≈ 0.051 µM) and the IC50 at 72 h [9] was greater than 500 µg/mL.

For CC[C@H](C)CCCCC(=O)N[C@@H](CCN)C(=O)N[C@H](C(=O)N[C@H](CN)C(=O)N[C@H]1CCNC(=O)[C@H]([C@@H](C)O)NC(=O)[C@H](CCN)NC(=O)[C@H](CCN)NC(=O)[C@H]([C@@H](C)O)NC(=O)[C@@H](Cc2ccccc2)NC(=O)[C@H](CCN)NC1=O)[C@@H](C)O [Compound 1, (S)-6-methyloctanoyl-Dab-Thr-D-Dap-ring(4-10)[Dab-Dab-D-Phe-Thr-Dab-Dab-Thr]] (X1-[Dab]T[dDap][Dab][Dab][dF]T[Dab][Dab]T; lactam 4-C), the MIC [1] was no more than 0.03 µg/mL, the MIC [2] was no more than 0.03 µg/mL and the MIC [3] was 0.125 µg/mL (≈ 0.106 µM). The MIC [4] was no more than 0.03 µg/mL, the MIC [5] was 0.03 µg/mL (≈ 0.0255 µM) and the MIC [6] was no more than 0.03 µg/mL. The MIC [7] was no more than 0.03 µg/mL, the MIC [8] was no more than 0.03 µg/mL and the IC50 at 72 h [9] was greater than 500 µg/mL.

CCCCCCCC(=O)N[C@@H](CN)C(=O)N[C@H](C(=O)N[C@H](CCN)C(=O)N[C@H]1CCNC(=O)[C@H]([C@@H](C)O)NC(=O)[C@H](CCN)NC(=O)[C@H](CCN)NC(=O)[C@H](CC(C)C)NC(=O)[C@@H](Cc2ccccc2)NC(=O)[C@H](CCN)NC1=O)[C@@H](C)O [Compound 93, Octanoyl-Dap-Thr-D-Dab-ring(4-10)[Dab-Dab-D-Phe-Leu-Dab-Dab-Thr]] (Octanoyl-[Dap]T[dDab][Dab][Dab][dF]L[Dab][Dab]T; lactam 4-C) showed an MIC [1] of 0.03 µg/mL (≈ 0.0255 µM), an MIC [2] of 0.03 µg/mL (≈ 0.0255 µM) and an MIC [3] of 1 µg/mL (≈ 0.851 µM). For the same compound, the MIC [4] was 0.03 µg/mL (≈ 0.0255 µM), the MIC [5] was 1 µg/mL (≈ 0.851 µM) and the MIC [6] was 0.03 µg/mL (≈ 0.0255 µM). For the same compound, the MIC [7] was 0.03 µg/mL (≈ 0.0255 µM), the MIC [8] was 0.03 µg/mL (≈ 0.0255 µM) and the IC50 at 72 h [9] was 239 ± 19.1 µg/mL (≈ 204 µM).

For CCCCCCCC(=O)N[C@@H](CCN)C(=O)N[C@H](C(=O)N[C@H](CO)C(=O)N[C@H]1CCNC(=O)[C@H]([C@@H](C)O)NC(=O)[C@H](CCCN)NC(=O)[C@H](CCN)NC(=O)[C@H]([C@@H](C)O)NC(=O)[C@@H](Cc2ccccc2)NC(=O)[C@H](CCN)NC1=O)[C@@H](C)O [Compound 88, Octanoyl-Dab-Thr-D-Ser-ring(4-10)[Dab-Dab-D-Phe-Thr-Dab-Orn-Thr]] (Octanoyl-[Dab]T[dS][Dab][Dab][dF]T[Dab][Orn]T; lactam 4-C), the MIC [1] was 0.03 µg/mL (≈ 0.0255 µM), the MIC [2] was 0.06 µg/mL (≈ 0.0509 µM) and the MIC [3] was 64 µg/mL (≈ 54.3 µM). It also gave an MIC [4] of 0.25 µg/mL (≈ 0.212 µM), an MIC [5] greater than 64 µg/mL and an MIC [6] of 0.03 µg/mL (≈ 0.0255 µM). It also gave an MIC [7] of 0.5 µg/mL (≈ 0.424 µM), an MIC [8] of no more than 0.03 µg/mL and an IC50 at 72 h [9] greater than 500 µg/mL.
